Source: patent US8008501B2, “Quinoline compounds and their uses” (Rigel Pharmaceuticals, Inc., priority 2003, dated 2011)
Like-named read-outs stand apart in the source and are kept apart here.

Legend:
[1] = system: cultured human mast cells (CHMC); assay: CHMC low cell density IgE activation: tryptase assay; format: cell-based; conditions: anti-IgE stimulated, tryptase release, first symbol of cell
Description: Inhibition of degranulation was measured at both low and high cell density by quantifying the release of the granule specific factors tryptase, histamine and hexosaminidase. Inhibition of release and/or synthesis of lipid mediators was assessed by measuring the release of leukotriene LTC4 and inhibition of release and/or synthesis of cytokines was monitored by quantifying TNF-α, IL-6 and IL-13. Tryptase and hexosaminidase were quantified using fluorogenic substrates as described in their respective examples. Histamine, TNFα, IL-6, IL-13 and LTC4 were quantified using the following commercial ELISA kits: histamine (Immunotech #2015, Beckman Coulter), TNFα (Biosource #KHC3011), IL-6 (Biosource #KMC0061), IL-13 (Biosource #KHC0132) and LTC4 (Cayman Chemical #520211). The protocols of the various assays are provided below.
7.7.2 CHMC Low Cell Density IgE Activation: Tryptase and LTC4 Assays
To duplicate 96-well U-bottom plates (Costar 3799) add 65 ul of compound dilutions or control samples that have been prepared in MT [137 mM NaCl, 2.7 mM KCl, 1.8 mM CaCl2, 1.0 mM MgCl2, 5.6 mM Glucose, 20 mM Hepes (pH 7.4), 0.1% Bovine Serum Albumin, (Sigma A4503)] containing 2% MeOH and 1% DMSO. Pellet CHMC cells (980 rpm, 10 min) and resuspend in pre-warmed MT. Add 65 ul of cells to each 96-well plate. Depending on the degranulation activity for each particular CHMC donor, load 1000-1500 cells/well. Mix four times followed by a 1 hr incubation at 37° C. During the 1 hr incubation, prepare 6× anti-IgE solution [rabbit anti-human IgE (1 mg/ml, Bethyl Laboratories A80-109A) diluted 1:167 in MT buffer]. Stimulate cells by adding 25 ul of 6× anti-IgE solution to the appropriate plates. Add 25 ul MT to un-stimulated control wells. Mix twice following addition of the anti-IgE. Incubate at 37° C. for 30 minutes. During the 30 minute incubation, dilute the 20 mM tryptase substrate stock solution [(Z-Ala-Lys-Arg-AMC2TFA; Enzyme Systems Products, #AMC-246)] 1:2000 in tryptase assay buffer [0.1 M Hepes (pH 7.5), 10% w/v Glycerol, 10 uM Heparin (Sigma H-4898) 0.01% NaN3]. Spin plates at 1000 rpm for 10 min to pellet cells. Transfer 25 ul of supernatant to a 96-well black bottom plate and add 100 ul of freshly diluted tryptase substrate solution to each well. Incubate plates at room temperature for 30 min. Read the […] of the plates at 355 nm/460 nm on a spectrophotometric plate reader.

[2] = system: cultured human mast cells (CHMC); assay: CHMC low cell density ionomycin activation: tryptase assay; format: cell-based; conditions: ionomycin stimulated, tryptase release
Description: To confirm that many of the quinoline compounds of the invention exert their inhibitory activity by blocking or inhibiting the early IgE receptor signal transduction cascade, many of the compounds were tested in cellular assays for ionomycin-induced degranulation, as described below.
7.8.1 CHMC Low Cell Density Ionomycin Activation: Tryptase Assay
Assays for ionomycin-induced mast cell degranulation were carried out as described for the CHMC Low Density IgE Activation assays (Section 7.7.2, supra), with the exception that during the 1 hour incubation, 6× ionomycin solution [5 mM ionomycin (Signma 1-0634) in MeOH (stock) diluted 1:416.7 in MT buffer ([…])] was prepared and cells were stimulated by adding 25 μl of the 6× ionomycin solution to the appropriate plates.

[3] = system: mouse model of passive cutaneous anaphylaxis (PCA); conditions: i.p., 30 minutes pretreatment time
Description: This model provides a direct measure of IgE-induced degranulation of tissue mast cells. In this model, IgE primed animals are exposed to an allergen challenge and the change in permeability of dermal vasculature that results from histamine release from mast cells is measured by change in the amount of dye leakage into surrounding tissue. Inhibition of mediator release by compounds that modulate mast cell degranulation is easily measured by extracting the dye from the tissue.
In the PCA assay mice are passively sensitized by intradermal injection with anti-dinitrophenol (DNP) IgE antibodies (Day-1). At predetermined times (5-60 minutes prior to challenge), animals are treated with the test agent (Day 0). The modulatory effect of the agent on cutaneous mast cell degranulation is measured following intravenous injection of DNP conjugated to human serum albumin (HSA-DNP), together with Evans blue dye. The resulting cross-linking of the IgE receptor and subsequent mast cell degranulation-induced increase in vascular permeability is determined by measuring the amount of dye extravasation into the tissue. Dye is extracted from the tissue by formamide, and the absorbance of this extract is read at 620 nm. The inhibitory effect of drug treatment is reported as the percent inhibition compared to vehicle treatment, that is, the percent reduction in A620. […]

[4] = second symbol of cell, read-out: CHMC -IONO
[5] = Homo sapiens, Mast cell, second symbol of cell, read-out: CHMC -IONO

IC50 [1] | IC50 [2, 4] | Compound | other results
≤ 10 µM | ≤ 10 µM | Cc1onc(-c2ccccc2)c1C(=O)Oc1ccnc2cc(C(F)(F)F)ccc12 [Compound 13] | –
– | – | Cc1onc(-c2ccccc2)c1NC(=O)c1cc(Nc2cccc(O)c2)nc2ccc(Br)cc12 [Compound 71, 6-Bromo-2-(3-hydroxyphenyl)amino-N-(5-methyl-3-phenylisoxazol-4-yl)-4-quinolinecarboxamide] | IC50 ([1]; Homo sapiens, Mast cell): ≤ 10 µM; IC50 [2, 5]: ≤ 10 µM
≤ 10 µM | ≤ 10 µM | Cc1noc(C)c1C(=O)Oc1cc(C(F)(F)F)nc2ccc(OC(F)(F)F)cc12 [Compound 29] | –
≤ 10 µM | > 10 µM | Cc1noc(C)c1NC(=O)c1cc(Cl)nc2ccc(Br)cc12 [Compound 45] | –
≤ 10 µM | ≤ 10 µM | Cc1onc(-c2ccccc2)c1C(=O)Oc1cc(C(F)(F)F)nc2ccc(OC(F)(F)F)cc12 [Compound 27] | –
≤ 10 µM | ≤ 10 µM | Cc1onc(-c2ccccc2)c1C(=O)Oc1ccnc2ccc(OC(F)(F)F)cc12 [Compound 51] | –
≤ 10 µM | – | Cc1onc(-c2ccccc2)c1C(=O)Oc1ccnc2c(C(F)(F)F)cccc12 [Compound 15] | –
≤ 10 µM | > 10 µM | Cc1onc(-c2ccccc2)c1NC(=O)c1cc(Nc2ccc3[nH]ccc3c2)nc2ccc(Br)cc12 [Compound 65] | –
– | – | Cc1onc(-c2ccccc2)c1NC(=O)c1cc(Cl)nc2ccc(Br)cc12 [Compound 43, 6-bromo-2-chloro-N-(5-methyl-3-phenylisoxazol-4-yl)-4-quinolinecarboxamide] | IC50 ([1]; Homo sapiens, Mast cell): ≤ 10 µM; IC50 [2, 5]: > 10 µM
– | – | CN(C)CCOC(c1ccccc1)c1ccccc1 [diphenhydramine] | inhibition of the PCA response ([3]; highest dose 50 mg/kg): up to 86%
> 10 µM | > 10 µM | Cc1onc(-c2ccccc2)c1NC(=O)c1ccnc2ccccc12 [Compound 63] | –
– | – | Cc1cc(OC(=O)c2c(-c3ccccc3)noc2C)c2ccccc2n1 [Compound 9, 5-Methyl-3-phenyl-4-isoxazolecarboxylic acid, 2-methyl-4-quinolinyl Ester] | IC50 ([1]; Homo sapiens, Mast cell): ≤ 10 µM; IC50 [2, 5]: ≤ 10 µM
≤ 10 µM | > 10 µM | CNc1cc(NC(=O)c2c(-c3ccccc3)noc2C)c2cc(Br)ccc2n1 [Compound 67] | –
– | – | Cc1cc(C(=O)Nc2c(-c3ccccc3)noc2C)c2cc(F)ccc2n1 [Compound 47, 6-Fluoro-2-methyl-N-(5-methyl-3-phenylisoxazol-4-yl)-4-quinolinecarboxamide] | IC50 ([1]; Homo sapiens, Mast cell): ≤ 10 µM; IC50 [2, 5]: > 10 µM
≤ 10 µM | ≤ 10 µM | Cc1onc(-c2ccccc2)c1C(=O)Oc1ccnc2cc(Cl)ccc12 [Compound 7] | –
≤ 10 µM | > 10 µM | Cc1cc(C(=O)Nc2c(C)noc2C)c2cc(F)ccc2n1 [Compound 49] | –
– | – | Cc1onc(-c2ccccc2)c1C(=O)Nc1ccnc2cc(C(F)(F)F)ccc12 [Compound 35, 5-Methyl-3-phenyl-N-(7-trifluoromethyl-4-quinolinyl)-4-isoxazolecarboxamide] | IC50 ([1]; Homo sapiens, Mast cell): ≤ 10 µM; IC50 [2, 5]: ≤ 10 µM
> 10 µM | > 10 µM | Cc1noc(C)c1C(=O)Nc1ccnc2cc(C(F)(F)F)ccc12 [Compound 37] | –
> 10 µM | > 10 µM | Cc1noc(C)c1NC(=O)c1cc(-c2ccccc2)nc2ccccc12 [Compound 1] | –
≤ 10 µM | ≤ 10 µM | Cc1onc(-c2ccccc2)c1C(=O)Oc1ccnc2ccccc12 [Compound 5] | –
≤ 10 µM | – | Cc1cc(OC(=O)c2c(C)noc2C)c2cc(F)ccc2n1 [Compound 21] | –
≤ 10 µM | ≤ 10 µM | CCOC(=O)c1cnc2cc(C(F)(F)F)ccc2c1OC(=O)c1c(-c2ccccc2)noc1C [Compound 17] | –
– | – | CN1CCC(=C2c3ccccc3C=Cc3ccccc32)CC1 [Cyproheptadine, cyproheptadine] | inhibition of the PCA response ([3]; 8 mg/kg, n=23 experiments): 61% +/−4
> 10 µM | > 10 µM | Cc1onc(-c2ccccc2)c1NC(=O)c1cc(-c2ccccc2)nc2ccccc12 [Compound 61] | –
≤ 10 µM | ≤ 10 µM | CCOC(=O)c1cc(OC(=O)c2c(-c3ccccc3)noc2C)c2ccccc2n1 [Compound 19] | –
≤ 10 µM | ≤ 10 µM | Cc1cc(OC(=O)c2c(-c3ccccc3)noc2C)c2cc(F)ccc2n1 [Compound 11] | –

Compound | IC50 [1] | IC50 [2, 4] | other results
Cc1onc(-c2c(F)cccc2Cl)c1C(=O)Oc1cc(C(F)(F)F)nc2ccc(OC(F)(F)F)cc12 [Compound 31] | ≤ 10 µM | ≤ 10 µM | –
Cc1cc(OC(=O)c2c(-c3ccccc3Cl)noc2C)c2cc(F)ccc2n1 [Compound 25] | ≤ 10 µM | ≤ 10 µM | –
Cc1cc(OC(=O)c2c(-c3c(F)cccc3Cl)noc2C)c2cc(F)ccc2n1 [Compound 23] | ≤ 10 µM | – | –
Cc1onc(-c2c(F)cccc2Cl)c1C(=O)Nc1ccnc2cc(C(F)(F)F)ccc12 [Compound 39] | ≤ 10 µM | – | IC50 ([2]; read-out: CHMC -IONO (number printed instead of class symbol)): 30 µM
Cc1onc(-c2ccccc2Cl)c1C(=O)Nc1ccnc2cc(C(F)(F)F)ccc12 [Compound 41] | > 10 µM | > 10 µM | –
Cc1onc(-c2ccccc2Cl)c1C(=O)Oc1cc(C(F)(F)F)nc2ccc(OC(F)(F)F)cc12 [Compound 33] | ≤ 10 µM | – | –
Cc1onc(-c2c(F)cccc2Cl)c1C(=O)Oc1ccnc2ccc(OC(F)(F)F)cc12 [Compound 57] | ≤ 10 µM | > 10 µM | –
Cc1cc(NC(=O)c2c(-c3ccccc3)noc2C)c2ccccc2n1 [Compound 3] | > 10 µM | – | –
Cc1onc(-c2ccccc2Cl)c1C(=O)Oc1ccnc2ccc(OC(F)(F)F)cc12 [Compound 53] | ≤ 10 µM | ≤ 10 µM | –
